# Where two headings read alike, the source gives them in different places.
# Legend:
# Assay type in all cases: biochemical
# [1] = molecular target: Akt3 (Homo sapiens, UniProt Q9Y243); assay: AlphaScreen kinase assay, Akt3; conditions: read-out: IC50, activity toward kinase Akt3
# Text: AlphaScreen assay was used to screen additional kinases. The assay is similarly dependent on the phosphorylation of a peptide substrate. In this assay, an antibody that recognizes phosphorylated substrate is bound to an acceptor bead. The peptide substrate is attached to biotin, which binds to a donor head that contains streptavidin. Thus phosphorylated substrate is bound by antibody and streptavidin, bringing the donor and acceptor heads into close proximity when kinase is not inhibited. The donor produces singlet oxygen which results in emission from the acceptor when they are in close proximity. Conversely, when kinase is inhibited, the donor and acceptor beads are not associated and the emission from the acceptor is reduced.
# AlphaScreen assays were done using compounds dissolved in DMSO to a concentration of 20 mM. The compounds were diluted accordingly to the desired final concentrations in each sample well, using 1:3 serial dilution for a total of 8 concentration points.
# [2] = molecular target: T1, B-Raf (Homo sapiens, UniProt P15056); assay: AlphaScreen kinase assay, B-Raf; conditions: read-out: IC50, activity toward kinase B-Raf
# T1 construct: purchased Upstate Biotechnology
# [3] = molecular target: T2, Fak (Homo sapiens, UniProt Q05397); assay: AlphaScreen kinase assay, Fak; conditions: read-out: IC50, activity toward kinase Fak
# T2 construct: P1358.pFastBacHtb FAK S411-Q686-X; His6 with pFastBacHTb leader (TEV site) (N); made in house; host or cells: Sf9 (baculovirus)
# [4] = molecular target: T3, c-Raf-1 (Homo sapiens, UniProt P04049); assay: AlphaScreen kinase assay, c-Raf-1; conditions: read-out: IC50, activity toward kinase c-Raf-1
# T3 construct: purchased Upstate Biotechnology
# [5] = molecular target: T4, FGFR1 (Homo sapiens, UniProt P11362, C488A/C584S); assay: AlphaScreen kinase assay, FGFR1
# T4 construct: P1351.pET N6 BI-PTP FGFR A458-E765-X C488A, C584S; made in house; host or cells: E. coli (PTP1B co-expressed)
# [6] = molecular target: T5, Kit (Homo sapiens, UniProt P10721); assay: AlphaScreen kinase assay, Kit; conditions: read-out: IC50, activity toward kinase Kit
# T5 construct: P1332.N6 BI PTP KIT M552-K948-X COD; His6 (N); made in house; host or cells: E. coli (PTP1B co-expressed)
# [7] = molecular target: T6, Src (Homo sapiens, UniProt P12931); assay: AlphaScreen kinase assay, Src; conditions: read-out: IC50, activity toward kinase Src
# T6 construct: P1144. pET-N6 BI-PTP SRC V86-L536-X; made in house
# [8] = molecular target: T7, Jnk3 (Homo sapiens, UniProt P53779); assay: AlphaScreen kinase assay, Jnk3; conditions: read-out: IC50, activity toward kinase Jnk3
# T7 construct: purchased Upstate Biotechnology
# [9] = molecular target: T8, B-Raf V600E (Homo sapiens, UniProt P15056, V600E); assay: AlphaScreen kinase assay, B-Raf V600E; conditions: read-out: IC50, activity toward kinase B-Raf V600E
# T8 construct: P4254. pFastBacBD-CDC37 BRAF D437-K722-X, V600E; His6 with pFastBac HT leader (TEV site) (N); made in house; host or cells: Sf9 (baculovirus; chaperone CDC37 co-expressed)
# [10] = molecular target: T9, Jnk1 (Homo sapiens, UniProt P45983); assay: AlphaScreen kinase assay, Jnk1; conditions: read-out: IC50, activity toward kinase Jnk1
# T9 construct: purchased Upstate Biotechnology
# [11] = molecular target: T10, Fms (Homo sapiens, UniProt P07333); assay: AlphaScreen kinase assay, Fms; conditions: read-out: IC50, activity toward kinase Fms
# T10 construct: purchased Upstate Biotechnology
# [12] = molecular target: T11, Jnk2 (Homo sapiens, UniProt P45984); assay: AlphaScreen kinase assay, Jnk2; conditions: read-out: IC50, activity toward kinase Jnk2
# T11 construct: purchased Roche Protein Expression Group (Indianapolis, IN)
# How it was run: (§1)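 Peptide phosphorylation detected by proximity: streptavidin donor beads bind biotinylated substrate, acceptor beads carry antibody to phosphorylated substrate, singlet oxygen transfer gives emission. Dose-response over 8 points (1:3 steps); stocks 20 mM in DMSO.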
# [13] = molecular target: MAP4K4 (Homo sapiens, UniProt O95819); assay: AlphaScreen kinase assay, MAP4K4; conditions: read-out: IC50, activity toward kinase MAP4K4
# [14] = molecular target: T12, Pyk2 (Homo sapiens, UniProt Q14289); assay: AlphaScreen kinase assay, Pyk2; conditions: read-out: IC50, activity toward kinase Pyk2
# T12 construct: purchased Upstate Biotechnology
# [15] = molecular target: T13, Zap70 (Homo sapiens, UniProt P43403); assay: AlphaScreen kinase assay, Zap70; conditions: read-out: IC50, activity toward kinase Zap70
# T13 construct: P1868.pFastBac1 ZAP70 D327-G606 HIS, WT; His7 (HHHHHHH) (C); made in house
# T13 sequence (P43403 with tags, fused parts or gaps): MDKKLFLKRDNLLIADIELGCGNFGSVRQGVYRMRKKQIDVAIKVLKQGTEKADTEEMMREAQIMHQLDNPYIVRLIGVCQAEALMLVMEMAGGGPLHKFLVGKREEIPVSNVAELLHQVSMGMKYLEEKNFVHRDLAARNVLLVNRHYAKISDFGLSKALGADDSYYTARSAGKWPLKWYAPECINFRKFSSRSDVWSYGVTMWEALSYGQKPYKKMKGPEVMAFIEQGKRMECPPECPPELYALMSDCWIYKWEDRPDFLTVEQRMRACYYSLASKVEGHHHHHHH
# How it was run: as §1
# [16] = read-out: IC50, activity toward kinase FGFR
# MAP4K4, sequence (O95819 whole entry): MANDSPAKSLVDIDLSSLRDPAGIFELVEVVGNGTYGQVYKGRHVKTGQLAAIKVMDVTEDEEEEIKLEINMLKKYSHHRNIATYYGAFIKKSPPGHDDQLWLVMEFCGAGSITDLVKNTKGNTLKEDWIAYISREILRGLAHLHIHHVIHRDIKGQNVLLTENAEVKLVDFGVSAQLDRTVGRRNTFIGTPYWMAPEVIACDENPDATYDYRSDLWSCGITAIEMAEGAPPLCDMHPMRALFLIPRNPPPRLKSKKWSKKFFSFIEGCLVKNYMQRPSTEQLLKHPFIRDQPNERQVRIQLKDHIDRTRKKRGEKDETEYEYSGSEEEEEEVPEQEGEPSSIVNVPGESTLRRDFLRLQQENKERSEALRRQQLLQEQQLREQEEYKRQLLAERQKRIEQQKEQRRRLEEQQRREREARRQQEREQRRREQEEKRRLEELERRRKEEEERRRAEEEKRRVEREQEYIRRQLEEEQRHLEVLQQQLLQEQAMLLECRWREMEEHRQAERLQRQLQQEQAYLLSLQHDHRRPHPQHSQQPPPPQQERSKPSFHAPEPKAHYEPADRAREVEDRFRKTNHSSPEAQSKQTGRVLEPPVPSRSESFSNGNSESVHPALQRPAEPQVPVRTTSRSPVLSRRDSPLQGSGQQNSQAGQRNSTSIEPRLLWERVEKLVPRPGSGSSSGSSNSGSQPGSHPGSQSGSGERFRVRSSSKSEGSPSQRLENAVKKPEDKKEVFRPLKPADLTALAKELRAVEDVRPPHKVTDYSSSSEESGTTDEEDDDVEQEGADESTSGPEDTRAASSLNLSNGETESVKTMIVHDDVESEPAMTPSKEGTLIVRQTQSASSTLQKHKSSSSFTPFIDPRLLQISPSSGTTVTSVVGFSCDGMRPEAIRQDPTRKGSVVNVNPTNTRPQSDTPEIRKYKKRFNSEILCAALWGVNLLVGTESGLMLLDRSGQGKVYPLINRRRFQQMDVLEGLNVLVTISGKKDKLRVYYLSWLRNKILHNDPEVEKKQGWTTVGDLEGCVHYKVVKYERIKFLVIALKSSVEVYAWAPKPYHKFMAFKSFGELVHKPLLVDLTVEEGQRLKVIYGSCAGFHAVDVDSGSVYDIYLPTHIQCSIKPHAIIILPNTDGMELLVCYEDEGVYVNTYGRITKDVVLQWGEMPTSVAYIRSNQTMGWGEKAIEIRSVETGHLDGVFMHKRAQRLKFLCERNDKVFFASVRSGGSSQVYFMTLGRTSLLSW
# T5 sequence (P10721 with tags, fused parts or gaps): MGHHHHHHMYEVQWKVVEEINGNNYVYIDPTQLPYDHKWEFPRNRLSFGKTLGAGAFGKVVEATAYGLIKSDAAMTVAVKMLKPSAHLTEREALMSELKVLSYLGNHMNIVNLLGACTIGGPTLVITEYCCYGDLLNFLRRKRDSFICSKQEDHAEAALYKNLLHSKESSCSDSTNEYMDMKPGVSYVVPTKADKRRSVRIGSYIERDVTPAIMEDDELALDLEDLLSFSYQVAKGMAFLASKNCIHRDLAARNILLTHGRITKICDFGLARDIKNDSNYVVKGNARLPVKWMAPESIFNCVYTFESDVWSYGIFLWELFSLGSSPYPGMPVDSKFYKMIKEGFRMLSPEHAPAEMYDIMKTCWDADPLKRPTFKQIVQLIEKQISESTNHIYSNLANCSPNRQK
# T7 sequence (P53779 whole entry): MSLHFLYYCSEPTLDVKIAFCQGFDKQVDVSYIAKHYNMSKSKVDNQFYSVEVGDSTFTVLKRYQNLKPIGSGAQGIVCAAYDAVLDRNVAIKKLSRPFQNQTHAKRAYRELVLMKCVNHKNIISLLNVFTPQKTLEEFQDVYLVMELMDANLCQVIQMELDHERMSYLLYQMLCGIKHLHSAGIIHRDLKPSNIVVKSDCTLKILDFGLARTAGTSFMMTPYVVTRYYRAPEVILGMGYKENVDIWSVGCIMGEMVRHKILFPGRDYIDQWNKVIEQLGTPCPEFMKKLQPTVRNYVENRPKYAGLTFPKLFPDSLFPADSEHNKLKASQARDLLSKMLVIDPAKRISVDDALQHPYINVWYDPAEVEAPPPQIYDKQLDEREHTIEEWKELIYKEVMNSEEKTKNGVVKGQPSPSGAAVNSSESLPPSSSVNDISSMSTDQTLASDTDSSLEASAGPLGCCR
# T3 sequence (P04049 whole entry): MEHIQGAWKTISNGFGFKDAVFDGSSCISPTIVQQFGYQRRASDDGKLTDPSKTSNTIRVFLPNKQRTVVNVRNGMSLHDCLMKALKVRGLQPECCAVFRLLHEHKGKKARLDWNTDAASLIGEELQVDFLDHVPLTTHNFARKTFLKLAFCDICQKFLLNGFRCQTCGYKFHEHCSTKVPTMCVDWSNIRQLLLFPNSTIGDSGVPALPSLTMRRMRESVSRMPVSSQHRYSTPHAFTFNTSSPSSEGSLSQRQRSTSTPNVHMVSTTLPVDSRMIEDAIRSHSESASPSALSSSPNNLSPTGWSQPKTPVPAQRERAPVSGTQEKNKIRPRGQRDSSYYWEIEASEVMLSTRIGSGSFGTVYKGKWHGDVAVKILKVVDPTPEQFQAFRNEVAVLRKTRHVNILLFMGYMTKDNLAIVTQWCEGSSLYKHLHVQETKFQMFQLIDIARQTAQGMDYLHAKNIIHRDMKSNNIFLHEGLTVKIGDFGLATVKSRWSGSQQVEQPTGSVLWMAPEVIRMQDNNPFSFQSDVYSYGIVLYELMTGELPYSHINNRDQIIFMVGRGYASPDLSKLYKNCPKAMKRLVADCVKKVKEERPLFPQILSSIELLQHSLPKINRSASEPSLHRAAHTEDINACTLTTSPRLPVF
# Akt3, sequence (Q9Y243 whole entry): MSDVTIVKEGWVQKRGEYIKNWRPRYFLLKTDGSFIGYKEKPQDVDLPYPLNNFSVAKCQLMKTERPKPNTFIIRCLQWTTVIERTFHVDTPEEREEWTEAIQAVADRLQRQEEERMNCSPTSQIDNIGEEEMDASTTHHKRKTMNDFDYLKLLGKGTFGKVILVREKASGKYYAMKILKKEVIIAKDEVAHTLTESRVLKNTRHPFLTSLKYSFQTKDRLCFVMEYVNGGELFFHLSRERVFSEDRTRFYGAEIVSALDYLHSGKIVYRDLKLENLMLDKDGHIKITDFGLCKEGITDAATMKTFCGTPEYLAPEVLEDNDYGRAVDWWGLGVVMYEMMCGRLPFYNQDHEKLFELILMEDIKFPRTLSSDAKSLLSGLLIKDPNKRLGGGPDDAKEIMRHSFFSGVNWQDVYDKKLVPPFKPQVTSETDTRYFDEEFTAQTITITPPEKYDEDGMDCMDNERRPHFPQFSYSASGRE
# T9 sequence (P45983 whole entry): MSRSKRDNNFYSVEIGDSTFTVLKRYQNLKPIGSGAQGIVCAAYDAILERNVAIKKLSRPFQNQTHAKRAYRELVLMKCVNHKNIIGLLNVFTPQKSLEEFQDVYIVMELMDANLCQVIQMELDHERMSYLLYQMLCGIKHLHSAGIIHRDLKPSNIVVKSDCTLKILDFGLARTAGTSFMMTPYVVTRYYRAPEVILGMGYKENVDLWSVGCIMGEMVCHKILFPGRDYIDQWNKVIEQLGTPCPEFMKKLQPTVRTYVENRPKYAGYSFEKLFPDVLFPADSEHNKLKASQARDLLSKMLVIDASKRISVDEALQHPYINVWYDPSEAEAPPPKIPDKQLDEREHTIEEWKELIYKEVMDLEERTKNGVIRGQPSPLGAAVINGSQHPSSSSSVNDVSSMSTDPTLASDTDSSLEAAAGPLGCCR
# T6 sequence (P12931 with tags, fused parts or gaps): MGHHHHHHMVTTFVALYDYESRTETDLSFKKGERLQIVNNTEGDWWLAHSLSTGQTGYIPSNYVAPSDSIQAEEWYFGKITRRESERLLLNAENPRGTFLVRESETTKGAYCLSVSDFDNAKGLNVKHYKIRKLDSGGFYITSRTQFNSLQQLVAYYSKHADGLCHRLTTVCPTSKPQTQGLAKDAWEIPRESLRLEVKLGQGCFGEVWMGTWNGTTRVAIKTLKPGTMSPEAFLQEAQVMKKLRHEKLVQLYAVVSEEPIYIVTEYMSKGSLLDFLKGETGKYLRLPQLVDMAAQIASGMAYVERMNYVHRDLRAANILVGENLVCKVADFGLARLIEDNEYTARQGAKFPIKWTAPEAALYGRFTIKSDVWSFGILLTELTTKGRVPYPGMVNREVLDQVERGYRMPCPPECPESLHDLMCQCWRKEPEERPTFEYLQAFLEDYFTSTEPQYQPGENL
# T4 sequence (P11362 458-765 C488A/C584S): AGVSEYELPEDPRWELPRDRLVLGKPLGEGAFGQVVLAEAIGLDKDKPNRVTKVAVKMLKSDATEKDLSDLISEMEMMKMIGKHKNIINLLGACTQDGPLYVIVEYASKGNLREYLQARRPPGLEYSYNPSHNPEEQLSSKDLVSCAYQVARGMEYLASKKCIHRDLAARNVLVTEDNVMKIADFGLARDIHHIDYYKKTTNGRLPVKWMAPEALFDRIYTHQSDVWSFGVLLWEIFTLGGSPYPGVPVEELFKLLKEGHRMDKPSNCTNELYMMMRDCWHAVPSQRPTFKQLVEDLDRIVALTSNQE
# T2 sequence (Q05397 411-686): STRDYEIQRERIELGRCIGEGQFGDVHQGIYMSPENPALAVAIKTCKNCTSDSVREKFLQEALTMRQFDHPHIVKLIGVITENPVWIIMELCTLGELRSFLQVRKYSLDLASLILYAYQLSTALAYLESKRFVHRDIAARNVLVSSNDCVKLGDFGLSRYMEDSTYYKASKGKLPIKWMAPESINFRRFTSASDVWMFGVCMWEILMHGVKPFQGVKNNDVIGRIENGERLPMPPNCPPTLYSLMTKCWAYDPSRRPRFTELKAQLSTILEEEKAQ
Compound,IC50 [1] [µM],IC50 [4] [µM],"IC50 [5, 16] [µM]",IC50 [6] [µM],IC50 [7] [µM],IC50 [8] [µM],IC50 [10] [µM],IC50 [11] [µM],IC50 [13] [µM],also measured
CSc1ccc(Nc2ccnc3[nH]ccc23)cc1 [Compound P-0990],≤ 10,,,,,,,,,
"CCCS(=O)(=O)Nc1ccc(Cl)c(C(=O)c2c[nH]c3ncc(-c4cccnc4)cc23)c1F [Compound P-0753, Propane-1-sulfonic acid [4-chloro-2-fluoro-3-(5-pyridin-3-yl-1H-pyrrolo[2,3-b]pyridine-3-carbonyl)-phenyl]-amide]",,≤ 10,,≤ 10,≤ 10,≤ 10,≤ 10,≤ 10,≤ 10,IC50 [5]: ≤ 10 µM; IC50 [14]: ≤ 10 µM
CC(C)S(=O)(=O)Nc1ccc(F)c(Cc2c[nH]c3ncc(-c4cccnc4)cc23)c1F [Compound P-0851],,≤ 10,≤ 10,≤ 10,≤ 10,≤ 10,≤ 10,≤ 10,≤ 10,IC50 [2]: ≤ 10 µM; IC50 [3]: ≤ 10 µM; IC50 [14]: ≤ 10 µM; IC50 [9]: ≤ 10 µM
c1ccc2c(Cc3c[nH]c4ncccc34)cccc2c1 [Compound P-0442],,,≤ 10,,,,,,≤ 10,IC50 [15]: ≤ 10 µM

# More lines, main results first:
IC50 [1] [µM],IC50 [4] [µM],"IC50 [5, 16] [µM]",IC50 [6] [µM],IC50 [7] [µM],IC50 [8] [µM],IC50 [10] [µM],IC50 [11] [µM],Compound,IC50 [13] [µM],also measured
,≤ 10,≤ 10,≤ 10,≤ 10,≤ 10,≤ 10,≤ 10,"CCCS(=O)(=O)Nc1ccc(F)c(C(=O)c2c[nH]c3ncc(OCCOC)cc23)c1F [Compound P-1253, Propane-1-sulfonic acid {2,4-difluoro-3-[5-(2-methoxy-ethoxy)-1H-pyrrolo[2,3-b]pyridine-3-carbonyl]-phenyl}-amide]",≤ 10,IC50 [2]: ≤ 10 µM; IC50 [3]: ≤ 10 µM; IC50 [9]: ≤ 10 µM; IC50 [12]: ≤ 10 µM
≤ 10,,,,,,,,COc1ccc(Nc2ccnc3[nH]ccc23)cc1 [Compound P-1155],,
≤ 10,,,,,,,,c1cc2cc(Nc3ccc4ncsc4c3)cnc2[nH]1 [Compound P-1040],,
≤ 10,,,,,,,,c1ccc(Nc2ccnc3[nH]ccc23)cc1 [Compound P-1224],,
≤ 10,,,,,,,,Cc1ccc(Nc2ccnc3[nH]ccc23)cc1[N+](=O)[O-] [Compound P-0995],,
≤ 10,,,,,,,,c1cc(Nc2ccc3c(c2)OCO3)c2cc[nH]c2n1 [Compound P-1062],,

# — patent US8415469B2, “Compounds and methods for kinase modulation, and indications therefor” (Plexxikon Inc., priority 2005, dated 2013)
